Assay results as given in PMC3391587 (Journal of Nuclear Medicine, 2012).

Assay: HPLC radiometabolite analysis of arterial plasma after [^18F]DPA-714 injection
Type: in vivo
Details: rat arterial plasma, mean ± SD

- % [^18F]DPA-714 (parent) in plasma (P.I. time 12 (min), N=7): 68 ± 7.4%
- % [^18F]DPA-714 (parent) in plasma (P.I. time 30 (min), N=7): 44 ± 8.9%
- % [^18F]DPA-714 (parent) in plasma (P.I. time 60 (min), N=7): 27 ± 6.2%
- % [^18F]DPA-714 (parent) in plasma (P.I. time 90 (min), N=5): 22 ± 17.8%
Structure (SMILES): CCN(CC)C(=O)Cc1c(-c2ccc(OCC[18F])cc2)nn2c(C)cc(C)nc12 [[^18F]DPA-714, N,N-diethyl-2-(2-(4-(2-(^18F)-fluoroethoxy)phenyl)-5,7-dimethylpyrazolo[1,5-a]pyrimidin-3-yl)acetamide]
